# Experimental data from publication PMC3006138, “Fexinidazole – A New Oral Nitroimidazole Drug Candidate Entering Clinical Development for the Treatment of Sleeping Sickness” (PLoS Neglected Tropical Diseases, 2010).
# How the values were obtained:
# [1] = system: T. b. gambiense 130R; assay: Acute infection mouse model; format: in vivo; details: 100 mg/kg×4 days po
# Experimental: (§1) Female NMRI mice were infected via intraperitoneal injection with bloodstream forms of T. b. rhodesiense STIB900 or T. b. gambiense 130R and treated with test drugs daily for 4 consecutive days, starting on day 3 or 7 after infection, respectively, or with bloodstream forms of T. b brucei GVR35 and treated daily from day 21 after infection for 5 days. Parasitemia was evaluated by tail blood examination and surviving, aparasitaemic mice at 60, 90, or 180 days, respectively, were considered cured.
# [2] = system: T. b. rhodesiense STIB900; assay: Acute infection mouse model; format: in vivo
# Experimental: as §1
# [3] = Excretion balance; format: in vivo, rat; details: for excreted percent of dose, faeces / excreted percent of dose, urine: 800 mg/kg po; for radioactivity eliminated: within 48 h
# Experimental: Excretion balance in rats was carried out using a single oral dose of radiolabelled fexinidazole administered at the dose of 800 mg/kg (approximately 3.7 MBq/kg, 100 µCi/kg) by gastric gavage to three male albino Sprague Dawley rats. […]
# This study was conducted according to Protocol N° 0162-2008 and to Amendment 1. A copy of the experimental protocol is included in Appendix 1; a copy of the amendment is included […]
# FEXINIDAZOLE is a 5-nitroimidazole derivative biologically active against Trypanosoma parasites (T.b. rhodesiense and T.b. brucei) and useful in the treatment of the Human African Trypanosomiasis (HAT), known as sleeping sickness. FEXINIDAZOLE is a compound currently under development by the Sponsor.
# The objective of this study was to obtain information on the elimination of radioactive drug-related material in urine and faeces following oral administration of [14C]-FEXINIDAZOLE (800 mg/kg) to male Sprague Dawley rats.
# The albino Sprague Dawley rat was chosen as the species for this study since it was one of the species used in the toxicological evaluation of the test compound.
# Only male animals were used as no gender differences were expected with respect to the aim of the study. The oral route of administration was chosen as this is the intended therapeutic route. The dose level was selected in agreement with the Study Sponsor and it is within the pharmacological relevant range. No overt toxicity was expected after single dosing at this […]
# The study was conducted on 3 male animals after single oral administration of [14C]- FEXINIDAZOLE (800 mg/kg, approximately 3.7 MBq/kg, 100 µCi/kg).
# Urine and faeces were collected up to 96 hours after administration. The radioactivity levels of drug-related material were determined in each collected sample by Liquid Scintillation […]
# A summary of the experimental design is reported below:
# Animal no. Date of Dosing Administered Dose Samples collected and (oral administration) analyzed
# 100 µCi/kg washes, carcass and skin […]
# The test formulations were prepared by suspending unlabelled FEXINIDAZOLE and [14C]- FEXINIDAZOLE (see section 5.1) in 5% Tween 80 and 0.5% Methyl cellulose 400 cP (Methocel) in water, in order to obtain [14C]-FEXINIDAZOLE at the final target concentration of 80 mg/mL corresponding to a radioactivity concentration of about 370 […]
# The test formulation was prepared by suspending an appropriate amount of unlabelled FEXINIDAZOLE in the dose vehicle. This formulation was homogenised using a Potter-Elvehjem homogenizer apparatus (teflon pestle of approx. 30 mm x 53 mm and glass tube of 40 mL), in order to obtain a fine suspension by up-and-down strokes, gently made by hand. The formulation was then collected and transferred from the homogeniser glass tube to the glass pot containing the [14C]-FEXINIDAZOLE.
# During the preparation the test formulation was protected from light as far as possible.
# The radioactivity concentration and homogeneity of the test formulation were determined, before administration, by liquid scintillation counting of triplicate weighed aliquots of test formulation. The radiolabelled test formulation was used immediately after formulation.
# 6.7.1. Administered Doses
# The dose of [14C]-FEXINIDAZOLE was orally administered by gastric gavage at the target dose level of 800 mg/kg (radioactivity dose of about 3.7 MBq/kg, 100 µCi/kg) and at a target dose volume of about 10 mL/kg.
# Individual doses were prepared for each animal by weighing the appropriate amount of the test formulation in an appropriate syringe for oral administration. The amount of dose administered to each animal was determined by weighing the filled syringe before the treatment and the empty syringe after dose administration. The actual dose received by each animal was calculated using the weight of the administered formulation, the radioactivity concentration and the final specific activity of the test material.
# The actual doses received by each animal are documented in Table 1. […]
# [4] = Cardiovascular safety by telemetry; details: single oral dose
# Experimental: Cardiovascular safety parameters were assessed in beagle dogs. Four adult (>1 year old) beagle dogs were given oral doses of fexinidazole at 100, 300 and 1000 mg/kg in an escalating dose design.
# 6.3. Treatment and Experimental Design
# Experimental Day Treatmenta Dose (mg/kg) Volume Animal numbers (males) […]
# a) Animals were treated following an escalating dose design with an adequate washout (at least 5 half lives of the longer lasting metabolite) between doses
# Doses of 100, 300 and 1000 mg/kg of fexinidazole were selected based on the results of a […]
# The oral route is that intende d for clinical administration.
# 6.3.1. Clinical Observation […]
# dosing. Body weights are not reported here but they are archived with the study file.
# 6.3.2. Telemetry recordings
# On the day of dosing, telemetry signals from each animal were collected continuously […]
# The following parameters were calculated:
# − Systolic blood pressure (SBP, mmHg)
# − Diastolic blood pressure (DBP, mmHg)
# − Average blood pressure (ABP, mmHg)
# − Heart rate (HR, bpm, from the blood pressure signal)
# − ECG intervals (RR, PR, QRS and QT, ms)
# − Body temperature (BT, °C)
# All the above-mentioned parameters were extracted automatically by the Notocord HEM acquisition software (Notocord, Croissy-sur-Seine, France) as the average value of 10-second recordings. […]
# [5] = 0-96 h, listed as [14C]-FEXINIDAZOLE
compound,measurement,setting,value
"CSc1ccc(OCc2ncc([N+](=O)[O-])n2C)cc1 [Fexinidazole, 1-methyl-2-((p-(methylthio)phenoxy)methyl)-5-nitroimidazole]",Cured/infected,[1],3/3
same,Mean relapse time,[1],>90 days
same,Cured/infected,[2]; 25 mg/kg×4 days po,0/4
same,Mean relapse time,[2]; 25 mg/kg×4 days po,12 days
same,efficacy,"[2]; 50 mg/kg twice a day for 4 days po, T. b. rhodesiense and T. b. gambiense acute models",effective in curing
same,Cured/infected,[2]; 50 mg/kg×4 days po,1/4
same,Mean relapse time,[2]; 50 mg/kg×4 days po,>27 days
same,Cured/infected,[2]; 100 mg/kg×4 days po,4/4
same,Mean relapse time,[2]; 100 mg/kg×4 days po,>60 days
same,efficacy,"[2]; single high dose, acute model, data not shown",partially curative
same,overall recovery of total radioactivity,[3]; 0-96 h,approximately 93%
same,"percent of dose, cage washing",[3]; 0-96 h,2.73%
same,radioactivity recovered in all the excreta (including cage washes),[3]; 0-96 h,Approximately 91.4%
same,overall recovery of total radioactivity,[3]; [5],92.87%
same,"excreted percent of dose, faeces",[3]; 0-96 h,59%
same,"excreted percent of dose, urine",[3]; 0-96 h,30%
same,"excreted percent of dose, faeces",[3]; [5],58.77%
same,"excreted percent of dose, urine",[3]; [5],29.92%
same,dose recovered from the carcass (and skin),[3]; 96 h,About 1.4%
same,"percent of dose, carcass",[3]; 96 h,1.01%
same,"percent of dose, skin",[3]; 96 h,0.43%
same,radioactivity eliminated,[3],84%
same,radioactivity eliminated,[3]; listed as [14C]-FEXINIDAZOLE,about 84.3%
same,NOEL on body temperature,[4],100 mg/kg
same,NOEL on cardiovascular parameters and ECG intervals,[4],1000 mg/kg
